Measured values as given in patent EP1433789A1, “Pyrrolopyrazines and their use as selective apoptosis inducers” (Aponetics AG, priority 2002, dated 2004).

Columns and labels:
HeLa [1] = experiment: Hoechst 33342 nuclear staining (Table 3); assay type: cell-based, human; set-up: key: 0 relating to no activity; 1 relating to weak activity comprising less than 50% of the cells; score 2 relating to strong activity comprising more than 50% of the cells
In short: (§1)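 Adherent cells (3-5×10^3, pre-spread 24 h) or suspension cells (8-10×10^3) treated with compounds at 10, 3, 1 and 0.3 µM for 24 or 48 h, then Hoechst 33342 stained for 30 min. Apoptotic nuclear morphology scored by fluorescence microscopy: 0 none, 1 weak (<50% cells), 2 strong (>50% cells).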

Jurkat [2] = experiment: Hoechst 33342 nuclear staining (Table 3); assay type: cell-based, human; set-up: key: 0 relating to no activity; 1 relating to weak activity comprising less than 50% of the cells; score 2 relating to strong activity comprising more than 50% of the cells
In short: as §1

K562 [3] = experiment: Hoechst 33342 nuclear staining (Table 3); assay type: cell-based, human; set-up: key: 0 relating to no activity; 1 relating to weak activity comprising less than 50% of the cells; score 2 relating to strong activity comprising more than 50% of the cells
In short: as §1

KB = experiment: Hoechst 33342 nuclear staining (Table 3); assay type: cell-based, human; set-up: key: 0 relating to no activity; 1 relating to weak activity comprising less than 50% of the cells; score 2 relating to strong activity comprising more than 50% of the cells
In short: as §1

A20 [4] = experiment: MTS proliferation assay; assay type: cell-based; conditions: Mus musculus, A20, 72 h incubation
Experimental: (§2) The assay is performed in 96 well tissue culture plates. The cells (range : 1.5*10^3-10^4) are seeded out in 80 µl complete medium 24 h prior to compound treatment. The test compounds are added in 20 µl complete medium containing max 5% DMSO. The final compound concentrations in the assays are 10 µM, 3 µM,1 µM and 0.3 µM, respectively. The assay plates are incubated for 72 h at culture conditions. The MTS reagent is prepared according to the manufacturer's protocol (Promega G1111 ). 20 µl MTS reagent are added to each well, the assay plates are quickly spun and incubated for another 3 h at culture conditions. Subsequently, the plates are shortly shaked and absorption measured with a microplate-reader at 492 nm.

HeLa [5] = experiment: MTS proliferation assay; assay type: cell-based; conditions: Homo sapiens, 72 h incubation
Experimental: as §2

K562 [6] = experiment: MTS proliferation assay; assay type: cell-based; conditions: Homo sapiens, K562, 72 h incubation
Experimental: as §2

HeLa [7] = experiment: AnnexinV/7-AAD staining; assay type: cell-based, human; conditions: 10 µM, 24 h treatment
In short: (§3)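 Cells treated with compound at 10 µM final for 24 h, then stained with AnnexinV-GST/anti-GST Alexa 488 and 7-AAD and analysed by flow cytometry. Percent positive cells scored as 0 (<10%), 1 (10–50%) or 2 (>50%).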

Jurkat [8] = experiment: AnnexinV/7-AAD staining; assay type: cell-based, human; conditions: 10 µM, 24 h treatment
In short: as §3

Ramos = experiment: AnnexinV/7-AAD staining; assay type: cell-based, human; conditions: 10 µM, 24 h treatment
In short: as §3

A20 [9] = experiment: AnnexinV/7-AAD staining; assay type: cell-based, mouse; conditions: A20, 10 µM, 24 h treatment
In short: as §3

HeLa [10] = experiment: PI staining for cell cycle distribution; assay type: cell-based, human; set-up: key: 0 indicates no occurrence at all; 1 for weak; 2 for strong occurrence; conditions: HeLa 10 µM, 24 h
Experimental: (§4) 1 - 2*10^5 cells are seeded into 24 well tissue culture plates and incubated for 24 h prior to compound addition. Compounds are added for 24 h in a final concentration of 3 µM or 10 µM. Adherent cells are harvested by trypsinization. The cell suspensions are fixed by adding 2 parts ice cold ethanol 100% while vortexing. Then the samples are stored for > 2 h at-20°C. Subsequently the cells are washed with PBS once and resuspended in 250 µl PBS containing 50 µg/ml PI (Calbiochem # 537059), then the samples are incubated at 37°C for 30 minutes and subsequently analyzed on a FACSCalibur™ monitoring linear PI fluorescence activity on FL2.. The readout allows the detection of a possible direct or indirect influence of the tested compounds on the cell cycle. The following events can occur: a) Generation of a subG1 peak indicative for DNA fragmentation, b) increase of the cell population arrested in G2M phase. Both events are scored by 1 for weak and 2 for strong occurrence. 0 indicates no occurrence at all. […]

Jurkat [11] = experiment: PI staining for cell cycle distribution; assay type: cell-based, human; set-up: key: 0 indicates no occurrence at all; 1 for weak; 2 for strong occurrence; conditions: Jurkat 3 uM, 24 h
Experimental: as §4

Question: COc1cc2c(cc1OC)-c1cc3nc4ccccc4nc3n1C(C)C2 (stereo not drawn) [compound 8] was tested. Which “Hoechst 33342 nuclear staining” value (HeLa [1]; 24h, conc 0.3 (µM)) did it give?
Answer: Its value is 0.

Question: What about the “Hoechst 33342 nuclear staining” value (HeLa [1]; 24h, conc 1 (µM)) of the same molecule?
Answer: Its value is 0.

Question: What about the “Hoechst 33342 nuclear staining” value (HeLa [1]; 24h, conc 3 (µM)) of the same molecule?
Answer: Its value is 0.

Question: And the “Hoechst 33342 nuclear staining” value (HeLa [1]; 24h, conc 10 (µM))?
Answer: The value was 0.

Question: And the “Hoechst 33342 nuclear staining” value (HeLa [1]; 48h, conc 0.3 (µM))?
Answer: Its value is 0.

Question: And the “Hoechst 33342 nuclear staining” value (HeLa [1]; 48h, conc 1 (µM))?
Answer: Its value is 0.

Question: What about the “Hoechst 33342 nuclear staining” value (HeLa [1]; 48h, conc 3 (µM)) of the same molecule?
Answer: The value was 1 (1 relating to weak activity comprising less than 50% of the cells).

Question: And the “Hoechst 33342 nuclear staining” value (HeLa [1]; 48h, conc 10 (µM))?
Answer: Its value is 2 (score 2 relating to strong activity comprising more than 50% of the cells).

Question: And the “Hoechst 33342 nuclear staining” value (Jurkat [2]; 24h, conc 0.3 (µM))?
Answer: Its value is 1 (1 relating to weak activity comprising less than 50% of the cells).

Question: And the “Hoechst 33342 nuclear staining” value (Jurkat [2]; 24h, conc 1 (µM))?
Answer: The value was 1 (1 relating to weak activity comprising less than 50% of the cells).

Question: And the “Hoechst 33342 nuclear staining” value (Jurkat [2]; 24h, conc 3 (µM))?
Answer: The value was 2 (score 2 relating to strong activity comprising more than 50% of the cells).

Question: What about the “Hoechst 33342 nuclear staining” value (Jurkat [2]; 24h, conc 10 (µM)) of the same molecule?
Answer: The value was 2 (score 2 relating to strong activity comprising more than 50% of the cells).

Question: What about the “Hoechst 33342 nuclear staining” value (Jurkat [2]; 48h, conc 0.3 (µM)) of the same molecule?
Answer: Its value is 1 (1 relating to weak activity comprising less than 50% of the cells).

Question: What about the “Hoechst 33342 nuclear staining” value (Jurkat [2]; 48h, conc 1 (µM)) of the same molecule?
Answer: The value was 2 (score 2 relating to strong activity comprising more than 50% of the cells).

Question: What about the “Hoechst 33342 nuclear staining” value (Jurkat [2]; 48h, conc 3 (µM)) of the same molecule?
Answer: The value was 2 (score 2 relating to strong activity comprising more than 50% of the cells).

Question: What about the “Hoechst 33342 nuclear staining” value (Jurkat [2]; 48h, conc 10 (µM)) of the same molecule?
Answer: Its value is 2 (score 2 relating to strong activity comprising more than 50% of the cells).

Question: And the “Hoechst 33342 nuclear staining” value (K562 [3]; K562, 24h, conc 0.3 (µM))?
Answer: The value was 0.

Question: What about the “Hoechst 33342 nuclear staining” value (K562 [3]; K562, 24h, conc 1 (µM)) of the same molecule?
Answer: The value was 0.

Question: What about the “Hoechst 33342 nuclear staining” value (K562 [3]; K562, 24h, conc 3 (µM)) of the same molecule?
Answer: Its value is 0.

Question: And the “Hoechst 33342 nuclear staining” value (K562 [3]; K562, 48h, conc 0.3 (µM))?
Answer: Its value is 0.

Question: And the “Hoechst 33342 nuclear staining” value (K562 [3]; K562, 48h, conc 1 (µM))?
Answer: The value was 2 (score 2 relating to strong activity comprising more than 50% of the cells).

Question: And the “Hoechst 33342 nuclear staining” value (K562 [3]; K562, 48h, conc 3 (µM))?
Answer: Its value is 2 (score 2 relating to strong activity comprising more than 50% of the cells).

Question: What about the “Hoechst 33342 nuclear staining” value (K562 [3]; K562, 48h, conc 10 (µM)) of the same molecule?
Answer: The value was 2 (score 2 relating to strong activity comprising more than 50% of the cells).

Question: And the “Hoechst 33342 nuclear staining” value (KB; 24h, conc 0.3 (µM))?
Answer: Its value is 0.

Question: What about the “Hoechst 33342 nuclear staining” value (KB; 24h, conc 1 (µM)) of the same molecule?
Answer: The value was 0.

Question: And the “Hoechst 33342 nuclear staining” value (KB; 24h, conc 3 (µM))?
Answer: The value was 0.

Question: And the “Hoechst 33342 nuclear staining” value (KB; 24h, conc 10 (µM))?
Answer: Its value is 0.

Question: And the “Hoechst 33342 nuclear staining” value (KB; 48h, conc 0.3 (µM))?
Answer: Its value is 0.

Question: What about the “Hoechst 33342 nuclear staining” value (KB; 48h, conc 1 (µM)) of the same molecule?
Answer: The value was 0.

Question: And the “Hoechst 33342 nuclear staining” value (KB; 48h, conc 3 (µM))?
Answer: Its value is 0.

Question: And the “Hoechst 33342 nuclear staining” value (KB; 48h, conc 10 (µM))?
Answer: The value was 0.

Question: And the IC50 (A20 [4])?
Answer: The IC50 was 1 to 10 µM.

Question: What about the IC50 (HeLa [5]) of the same molecule?
Answer: Its IC50 is 1 to 10 µM.

Question: And the IC50 (K562 [6])?
Answer: Its IC50 is greater than 10 µM.

Question: What about the “percentage of positively stained cells (AnnexinV/7-AAD staining)” value (“percentage of positively stained cells” for short) (HeLa [7]) of the same molecule?
Answer: Its value is 1 (score 1 relates to more than 10% but less than 50%).

Question: And the “percentage of positively stained cells” value (Jurkat [8])?
Answer: The value was 0 (Score 0 relates to less than 10%).

Question: And the “percentage of positively stained cells” value (Ramos)?
Answer: The value was 0 (Score 0 relates to less than 10%).

Question: What about the “percentage of positively stained cells” value (A20 [9]) of the same molecule?
Answer: The value was 0 (Score 0 relates to less than 10%).

Question: And the “G2M (increase of the cell population arrested in G2M phase)” value (HeLa [10])?
Answer: The value was 0.

Question: And the “subG1 (generation of a subG1 peak indicative for DNA fragmentation)” value (HeLa [10])?
Answer: The value was 1.

Question: What about the “G2M (increase of the cell population arrested in G2M phase)” value (Jurkat [11]) of the same molecule?
Answer: Its value is 0.

Question: What about the “subG1 (generation of a subG1 peak indicative for DNA fragmentation)” value (Jurkat [11]) of the same molecule?
Answer: The value was 1.
